Laboratory results: patent US8846933B2, “N-link hydroxamic acid derivatives useful as antibacterial agents” (Pfizer Inc., priority 2009, dated 2014)
Counter-ions that a name gives are not always drawn.

Columns and labels:
Assay type in all cases: cell-based
[1] = system: Acinetobacter baumanii/haemolyticus: Multidrug-resistant clinical isolate (AB-3167); experiment: MIC determination (CLSI), strain AB-3167; conditions: unit assumed
Protocol: The in vitro antibacterial activity of compounds described in the Examples was evaluated by minimum inhibitory concentration (MIC) testing according to Clinical and Laboratory Standards Institute (CLSI, formerly NCCLS) guidelines. See: Clinical and Laboratory Standards Institute. Methods for Dilution Antimicrobial Susceptibility Tests for Bacteria that Grow Aerobically; Approved Standard-Seventh Edition. CLSI document M7-A7 [ISBN 1-56238-587-9]. Clinical and Laboratory Standards Institute, 940 West Valley Road, Suite 1400, Wayne, Pa. 19087-1898 USA, 2006; also Clinical and Laboratory Standards Institute. Performance Standards for Antimicrobial Susceptibility Testing; Eighteenth Informational Supplement. CLSI document M100-S18 [ISBN1-56238-653-0].Clinical and Laboratory Standards Institute.
The following bacterial strains were used in these MIC determinations:
2) Acinetobacter baumanii/haemolyticus: Multidrug-resistant clinical isolate labeled as AB-3167 in Tables 4 and 5;

[2] = system: Escherichia coli EC-1: VOGEL, mouse virulent; experiment: MIC determination (CLSI), strain EC-1; conditions: Escherichia coli EC-1, VOGEL, mouse virulent; unit assumed
Outline: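 The mouse-virulent VOGEL isolate of E. coli, EC-1, served as test organism. Minimum inhibitory concentration was measured by CLSI dilution methodology (M7-A7; M100-S18 standards).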

[3] = system: Pseudomonas aeruginosa UI-18: Wild-type (PA-7); experiment: MIC determination (CLSI), strain PA-7; conditions: Pseudomonas aeruginosa UI-18, wild-type; unit assumed
Outline: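 Strain tested was P. aeruginosa UI-18, a wild-type isolate labelled PA-7. Minimum inhibitory concentrations followed CLSI dilution methodology for aerobically growing bacteria (M7-A7, M100-S18).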

Row | Structure (SMILES) | AB-3167 (MIC) [1] [µg/mL] | EC-1 (MIC) [2] [µg/mL] | PA-7 (MIC) [3] [µg/mL]
1 | C[C@@](CCn1ccc(/C=C/c2ccccc2)cc1=O)(C(=O)NO)S(C)(=O)=O [Example 2, (2R)-N-hydroxy-2-methyl-2-(methylsulfonyl)-4-{2-oxo-4-[(E)-2-phenylvinyl]pyridin-1(2H)-yl}butanamide] | 64 | 0.5 | 2
2 | C[C@@](CCn1ccc(-c2ccc3c(c2)OCCO3)cc1=O)(C(=O)NO)S(C)(=O)=O [Example 18, (2R)-4-[4-(2,3-dihydro-1,4-benzodioxin-6-yl)-2-oxopyridin-1(2H)-yl]-N-hydroxy-2-methyl-2-(methylsulfonyl)butanamide] | > 64 | > 64 | 1
3 | CC(CCn1ccc(-c2ccc(OCCCO)cc2)cc1=O)(C(=O)NO)S(C)(=O)=O (stereo not drawn) [Example 30, N-hydroxy-4-{4-[4-(3-hydroxypropoxy)phenyl]-2-oxopyridin-1(2H)-yl}-2-methyl-2-(methylsulfonyl)butanamide] | > 64 | 2 | 4
4 | C[C@@](CCn1ccc(N2CC(c3ccccc3)C2)cc1=O)(C(=O)NO)S(C)(=O)=O [Example 64, (2R)-N-Hydroxy-2-methyl-2-(methylsulfonyl)-4-[2-oxo-4-(3-phenylazetidin-1-yl)pyridin-1(2H)-yl]butanamide] | > 64 | 8 | 8
5 | CC(CCn1ccc(-c2ccc(OCCc3ccncc3)cc2)cc1=O)(C(=O)NO)S(C)(=O)=O (stereo not drawn) [Example 37, N-hydroxy-2-methyl-2-(methylsulfonyl)-4-{2-oxo-4-[4-(2-pyridin-4-ylethoxy)phenyl]pyridin-1(2H)-yl}butanamide] | > 64 | 0.5 | 4
6 | C[C@@](CCn1ccc(-c2cccc(Cl)c2F)cc1=O)(C(=O)NO)S(C)(=O)=O [Example 45, (2R)-4-[4-(3-chloro-2-fluorophenyl)-2-oxopyridin-1(2H)-yl]-N-hydroxy-2-methyl-2-(methylsulfonyl)butanamide] | > 64 | 0.25 | 0.5
7 | C[C@@](CCn1ccc(CCc2ccccc2)cc1=O)(C(=O)NO)S(C)(=O)=O [Example 3, (2R)-N-hydroxy-2-methyl-2-(methylsulfonyl)-4-[2-oxo-4-(2-phenylethyl)pyridin-1(2H)-yl]butanamide] | 64 | 1 | 4
8 | C[C@@](CCn1ccc(-c2ccc(OC[C@H]3CC[C@@H](O)CC3)cc2)cc1=O)(C(=O)NO)S(C)(=O)=O [Example 8, (2R)-N-hydroxy-4-[4-{4-[(cis-4-hydroxycyclohexyl)methoxy]phenyl}-2-oxopyridin-1(2H)-yl]-2-methyl-2-(methylsulfonyl)butanamide] | > 64 | 0.5 | 1
9 | CC(CCn1ccc(-c2ccc(-c3ccncc3)cc2)cc1=O)(C(=O)NO)S(C)(=O)=O (racemic) [Example 35, N-Hydroxy-2-methyl-2-(methylsulfonyl)-4-[2-oxo-4-(4-pyridin-4-ylphenyl)pyridin-1(2H)-yl]butanamide] | > 64 | 0.5 | 2
10 | CC(CCn1ccc(-c2ccc(OCCCN3CCC(F)(F)CC3)cc2)cc1=O)(C(=O)NO)S(C)(=O)=O (racemic) [Example 4, (+/−)-4-[4-{4-[3-(4,4-Difluoropiperidin-1-yl)propoxy]phenyl}-2-oxopyridin-1(2H)-yl]-N-hydroxy-2-methyl-2-(methylsulfonyl)butanamide hydrochloride] | > 64 | 1 | 4
11 | CC(=O)c1ccc(-c2ccn(CCC(C)(C(=O)NO)S(C)(=O)=O)c(=O)c2)cc1 (stereo not drawn) [Example 68-V, 4-[4-(4-acetylphenyl)-2-oxopyridin-1(2H)-yl]-N-hydroxy-2-methyl-2-(methylsulfonyl)butanamide] | > 64 | 4 | 4
12 | C[C@@](CCn1ccc(-c2ccc(Cl)c(Cl)c2)cc1=O)(C(=O)NO)S(C)(=O)=O [Example 68-C, (2R)-4-[4-(3,4-dichlorophenyl)-2-oxopyridin-1(2H)-yl]-N-hydroxy-2-methyl-2-(methylsulfonyl)butanamide] | > 64 | 0.125 | 0.5
13 | C[C@@](CCn1ccc(C2=CCCCCC2)cc1=O)(C(=O)NO)S(C)(=O)=O [Example 68-L, (2R)-4-(4-cyclohept-1-en-1-yl-2-oxopyridin-1(2H)-yl)-N-hydroxy-2-methyl-2-(methylsulfonyl)butanamide] | > 64 | 2 | 1
14 | CCC(CCn1ccc(-c2ccccc2)cc1=O)(C(=O)NO)S(C)(=O)=O (stereo not drawn) [Example 54, 2-Ethyl-N-hydroxy-2-(methylsulfonyl)-4-(2-oxo-4-phenylpyridin-1(2H)-yl)butanamide] | 64 | 16 | 16
15 | CC(CCn1ccc(-c2ccc(Oc3ccccn3)cc2)cc1=O)(C(=O)NO)S(C)(=O)=O (stereo not drawn) [Example 29, N-Hydroxy-2-methyl-2-(methylsulfonyl)-4-{2-oxo-4-[4-(pyridin-2-yloxy)phenyl]pyridin-1(2H)-yl}butanamide] | > 64 | 0.5 | 4
16 | CC1(O)CCC(Oc2ccc(-c3ccn(CC[C@](C)(C(=O)NO)S(C)(=O)=O)c(=O)c3)cc2)CC1 (stereo partly drawn) [Example 10-G, (2R)-N-hydroxy-4-[4-{4-[(4-hydroxy-4-methylcyclohexyl)oxy]phenyl}-2-oxopyridin-1(2H)-yl]-2-methyl-2-(methylsulfonyl)butanamide] | 64 | 0.5 | 2
17 | C[C@@](CCn1ccc(C2=CCN(c3ncccn3)CC2)cc1=O)(C(=O)NO)S(C)(=O)=O [Example 67, (2R)-N-Hydroxy-2-methyl-2-(methylsulfonyl)-4-(2-oxo-1′-pyrimidin-2-yl-1′,2′,3′,6′-tetrahydro-4,4′-bipyridin-1(2H)-yl)butanamide] | > 64 | 8 | 8
18 | C[C@@](CCn1ccc(-c2ccc(OCCCC#N)cc2)cc1=O)(C(=O)NO)S(C)(=O)=O [Example 10-C, (2R)-4-{4-[4-(3-cyanopropoxy)phenyl]-2-oxopyridin-1(2H)-yl}-N-hydroxy-2-methyl-2-(methylsulfonyl)butanamide] | > 64 | 0.5 | 1
19 | C[C@@](CCn1ccc(-c2ccc(OC3CCC(O)CC3)cc2)cc1=O)(C(=O)NO)S(C)(=O)=O (stereo partly drawn) [Example 7, (2R)-N-hydroxy-4-[4-{4-[(4-hydroxycyclohexyl)oxy]phenyl}-2-oxopyridin-1(2H)-yl]-2-methyl-2-(methylsulfonyl)butanamide] | 64 | 1 | 2
20 | Cc1ccc(-c2ccn(CC[C@](C)(C(=O)NO)S(C)(=O)=O)c(=O)c2)cc1 [Example 16, (2R)-N-hydroxy-2-methyl-4-[4-(4-methylphenyl)-2-oxopyridin-1(2H)-yl]-2-(methylsulfonyl)butanamide] | > 64 | 0.5 | 0.5
21 | CC(CCn1ccc(OCc2ccccc2)cc1=O)(C(=O)NO)S(C)(=O)=O (stereo not drawn) [Example 51, 4-[4-(Benzyloxy)-2-oxopyridin-1(2H)-yl]-N-hydroxy-2-methyl-2-(methylsulfonyl)butanamide] | > 64 | 16 | 16
